For one assay, the target named is T1, MAP2K1 (MEK1) (Homo sapiens, UniProt Q02750).
T1 construct: purchased ThermoFisher
Put plainly: MEK Inhibition Assay-2 (Example 3): Z'-LYTE biochemical assay. The conditions noted are these: Table 6; procedure of Example 3; read-out: IC50 against MEK1. On the procedure:
MEK1 inhibitory activity of compounds were tested using the following procedure (protocol available at thermofisher.com/content/dam/LifeTech/migration/files/drug-discovery/pdfs.par.60256.file.dat/20130430%20ssbk%20customer%20protocol%20and%20assay%20conditions.pdf). The Z′-LYTE biochemical assay (ThermoFisher) employs a fluorescence-based, coupled-enzyme format and is based on the differential sensitivity of phosphorylated and non-phosphorylated peptides to proteolytic cleavage.
Test compounds in 100% DMSO were screened in 1% DMSO (final) in the well. For 10 point titrations, 3-fold serial dilutions are conducted from the starting concentration of 30 μM.
After the 1 hour incubation, 5 μL of a 1:1024 dilution of Development Reagent A (available from Invitrogen, catalog no. PV3295) was added.
ATP solutions were diluted to a 4× working concentration in Kinase Buffer (50 mM HEPES pH 7.5, 0.01% BRIJ-35, 10 mM MgCl2, 1 mM EGTA). ATP Km apparent was previously determined using a Z′-LYTE assay. The Development Reagent was diluted in Development Buffer (available from Invitrogen, catalog no. P3127).
Assay Protocol: 2.5 μL of 4× test compound or 100 nL of 100× Test Compound plus 2.4 μL Kinase Buffer, 5 μL of the 2× Peptide/Kinase Mixture, 2.5 μL of 4×ATP Solution were added to the plates and placed on a shake plate for 30-seconds. The kinase reaction was allowed to proceed for 60-minute at room temperature, before 5 μL of Development Reagent Solution was added, and the mixture agitated for 30-seconds on a shake plate. The mixture was incubated for 60-minute at room temperature. Fluorescence was measured using a plate reader and the data were analyzed.
This control yielded 100% cleaved peptide in the Development Reaction. The 100% Phosphorylation Control, which consisted of a synthetically phosphorylated peptide of the same sequence as the peptide substrate, was designed to allow for the calculation of percent phosphorylation. This control yielded a very low percentage of cleaved peptide in the Development Reaction. The 0% Phosphorylation and 100% Phosphorylation Controls allow for the calculation of the percent phosphorylation achieved in a specific reaction well.
The minimum emission ratio in a screen was established by the 0% Inhibition Control, which contained active kinase. This control was designed to produce a 10-50% phosphorylated peptide in the Kinase Reaction. Cascade assays may produce up to 70% phosphorylated peptide.
A known inhibitor control standard curve, 10 point titration, was run for each individual kinase on the same plate as the kinase to ensure the kinase was inhibited within an expected IC50 range previously determined.
The following controls are prepared for each concentration of Test Compound assayed. […] The expected value for a non-interfering compound should be 100%. Any value outside of 90% to 110% was flagged. […] The expected value for a non-fluorescence compound should be 0%. Any value >20% was flagged.
The data in Table A was calculated. XLfit from IDBS was used. The dose response curve was curve fit to model number 205 (sigmoidal dose-response model).

Another assay deals with T2, MEK1 (Homo sapiens, UniProt Q02750).
T2 construct: N-terminal His-tagged recombinant human full length protein; purchased Invitrogen PV3303; host or cells: insect cells
Put plainly: MEK Inhibition Assay-1 (Example 2): 33P-ATP, P81 filter-binding kinase assay. The conditions noted are these: Example 2, read-out: Assay 1: biochemical MEK IC50. As to the method: The following procedure can be used to measure biochemical activity. MEK1 inhibitory activity of compounds were tested using the following procedure. […] Nat Biotechnoi 2011, 29(11), 1039-45.
• Reaction buffer: 20 mM Hepes (pH 7.5), 10 mM MgCl2, 1 mM EGTA, 0.02% Brij35, 0.02 mg/mL BSA, 0.1 mM Na3VO4, 2 mM DTT, 1% DMSO • Enzyme: MEK1, Invitrogen cat #PV3303 • N-terminal His-tagged recombinant human full length protein, expressed in insect cells. Activated in vitro by RAF1. MW=49.2 kDa, GenBank Accession No. NP_002746. • Substrate: 5 μM ERK2 (K52R), • Kinase-dead mutant, (GenBank Accession No. NM_0011949), aa2-358 with N-terminal His6 tag, MW=43.63 kDa, expressed in E. coli.
The substrate was prepared in freshly prepared Reaction Buffer. The kinase was delivered into the substrate solution and gently mixed. Test compounds were delivered in 100% DMSO into the kinase reaction mixture by Acoustic technology (Echo550; nanoliter range), and incubated for 20 min at room temperature. ^33P-ATP was delivered into the reaction mixture to initiate the reaction. The reaction mixture was incubated for 2 hours at room temperature. Kinase activity was detected by P81 filter-binding method.

Where [1] appears, read: Table 7, compounds of formula (I).
[2] abbreviates: Table 10, compounds of formula (IV).

Read-outs that look alike come from different tables or passages of the source. Some results are limits rather than exact numbers.

T2 sequence (Q02750 whole entry): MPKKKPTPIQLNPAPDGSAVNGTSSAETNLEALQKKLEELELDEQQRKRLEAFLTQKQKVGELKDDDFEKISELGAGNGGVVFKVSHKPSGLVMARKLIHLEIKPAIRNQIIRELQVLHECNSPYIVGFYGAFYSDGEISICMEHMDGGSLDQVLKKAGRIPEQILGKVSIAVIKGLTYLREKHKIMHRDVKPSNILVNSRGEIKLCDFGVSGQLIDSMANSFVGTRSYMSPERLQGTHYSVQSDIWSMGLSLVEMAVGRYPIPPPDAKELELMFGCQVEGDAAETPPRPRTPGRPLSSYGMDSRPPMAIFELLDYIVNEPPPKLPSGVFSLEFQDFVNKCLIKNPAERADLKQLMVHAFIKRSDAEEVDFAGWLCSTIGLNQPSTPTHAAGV
T1 sequence (Q02750 whole entry): as above

With `O=c1c2c(Nc3ccc(I)cc3F)cncc2ccn1C[C@H](O)CO` [Compound 5.002], at MAP2K1 (MEK1), the IC50 – broadly, the concentration needed to halve the response being measured – was at most 150 nM. Turning to `N#Cc1ccc(C(=O)NOCC2CC2)c(Nc2ccc(I)cc2F)c1F` [Compound 1.031], the half-maximal inhibitory concentration (IC50) at MAP2K1 (MEK1) and at MEK1 (setting [1]) was at most 150 nM each time.

Consider `CC(=O)c1sc(Nc2ccc(I)cc2F)c(C(=O)N2CC[C@@H](N)C2)c1C` [Compound 4.018], for which, on MEK1 (setting [2]), the IC50 is 5000 to 10000 nM. In the case of `N#Cc1ccc(C(=O)NO)c(Nc2ccc(I)cc2F)c1` [Compound 1.017], the IC50 at MAP2K1 (MEK1) is at most 150 nM. Still for that read-out and setting: then `N#Cc1ccc(C(=O)NOCC2CC2)c(Nc2ccc(I)cc2F)c1` [Compound 1.012], with 150 to 1500 nM.

On to `CC(=O)c1sc(Nc2ccc(I)cc2F)c(C(=O)NOCCO)c1C` [Compound 4.013], for which the IC50 on MAP2K1 (MEK1) was 150 to 1500 nM; on MEK1 (setting [2]), at most 500 nM.

In the case of `N#Cc1ccc(C(=O)N2CC(O)C2)c(Nc2ccc(I)cc2F)c1` [Compound 1.002], the IC50 on MAP2K1 (MEK1) was above 1500 nM. Still for that read-out and setting: then `O=C1CCCc2c1sc(Nc1ccc(I)cc1F)c2C(=O)NC[C@H](O)CO` [Compound 4.034], with at most 150 nM; and `COC(=O)CCONC(=O)c1ccc(C#N)cc1Nc1ccc(I)cc1F` [Compound 1.022], with above 1500 nM.

Regarding `NCCONC(=O)c1c(Nc2ccc(I)cc2F)sc2c1CCCC2=O` [Compound 4.033], the IC50 on MAP2K1 (MEK1) is at most 150 nM.

As to `O=C1NCCc2cncc(Nc3ccc(I)cc3F)c21` [Compound 5.012], the half-inhibitory concentration (IC50) at MAP2K1 (MEK1) lay in the range of 150 to 1500 nM. Same read-out and setting: the figure for `Cc1cc(I)ccc1Nc1cc(C#N)ccc1C(=O)NOCCO` [Compound 1.011] is 150 to 1500 nM; for `O=C1CCCc2c1sc(Nc1ccc(I)cc1F)c2C(=O)NC[C@@H](O)CO` [Compound 4.035] it is at most 150 nM. Still for that read-out and setting: the figure for `COC(=O)Cn1ccc2cncc(Nc3ccc(I)cc3F)c2c1=O` [Compound 5.005] is above 1500 nM. In the case of `O=C1CCCc2c1sc(Nc1ccc(I)cc1F)c2C(=O)NOCC1CC1` [Compound 4.032], the IC50 on MAP2K1 (MEK1) was at most 150 nM; at MEK1 (setting [2]), at most 500 nM.

Consider `CC(=O)c1sc(Nc2ccc(I)cc2F)c(C(=O)NCC(C)(C)N)c1C` [Compound 4.020], for which the IC50 on MEK1 (setting [2]) lay within 1000 to 5000 nM.

For `CC(=O)c1sc(Nc2ccc(I)cc2F)c(C(=O)NC[C@@H](O)CO)c1C` [Compound 4.015], the IC50 on MAP2K1 (MEK1) was 150 to 1500 nM.

`O=c1c2c(Nc3ccc(I)cc3F)cncc2ccn1C[C@@H](O)CO` [Compound 5.001]: the IC50 on MAP2K1 (MEK1) is at most 150 nM.

Consider `CC(=O)c1sc(Nc2ccc(I)cc2F)c(C(=O)N[C@@H]2CCCNC2)c1C` [Compound 4.016], for which the IC50 on MEK1 (setting [2]) lay within 500 to 1000 nM. Take `CCON1CCc2cncc(Nc3ccc(I)cc3F)c2C1=O` [Compound 5.011, 2-ethoxy-8-((2-fluoro-4-iodophenyl)amino)-3,4-dihydro-2,6-naphthyridin-1(2H)-one]: on MAP2K1 (MEK1), the IC50 was 150 to 1500 nM. As to `CCONC(=O)c1ccc(C#N)cc1Nc1ccc(I)cc1F` [Compound 1.008], the half-inhibitory concentration (IC50) at MAP2K1 (MEK1) is 150 to 1500 nM; on MEK1 (setting [1]), at most 150 nM.

`O=c1c2c(Nc3ccc(I)cc3F)cncc2ccn1OCCO` [Compound 5.007]: the IC50 at MAP2K1 (MEK1) was in the range of 150 to 1500 nM. `CCCONC(=O)c1ccc(C#N)cc1Nc1ccc(I)cc1F` [Compound 1.009]: the IC50 on MAP2K1 (MEK1) and at MEK1 (setting [1]) was 150 to 1500 nM throughout. `O=C1c2c(cncc2Nc2ccc(I)cc2F)CCN1OCCO` [Compound 5.010]: on MAP2K1 (MEK1), the IC50 is 150 to 1500 nM. Same read-out and setting: the figure for `O=C(O)Cn1ccc2cncc(Nc3ccc(I)cc3F)c2c1=O` [Compound 5.004] is above 1500 nM. As to `CONC(=O)c1c(Nc2ccc(I)cc2F)sc(C(C)=O)c1C` [Compound 4.021], the 50% inhibitory concentration (IC50) on MEK1 (setting [2]) was in the range of 500 to 1000 nM. Consider `N#Cc1ccc(C(=O)NOCCO)c(Nc2ccc(I)cc2F)c1F` [Compound 1.030], for which the half-maximal inhibitory concentration (IC50) at MAP2K1 (MEK1) and at MEK1 (setting [1]) was at most 150 nM in each case. As to `N#Cc1ccc(C(=O)O)c(Nc2ccc(I)cc2F)c1` [Compound 1.001], the half-inhibitory concentration (IC50) on MAP2K1 (MEK1) fell in the range of 150 to 1500 nM. Still for that read-out and setting: then `O=C1CCCc2c1sc(Nc1ccc(I)cc1F)c2C(=O)NOC[C@H](O)CO` [Compound 4.030], with at most 150 nM; and `O=c1c2c(Nc3ccc(I)cc3F)cncc2ccn1O` [Compound 5.006], with 150 to 1500 nM. With `CONC(=O)c1ccc(C#N)cc1Nc1ccc(I)cc1F` [Compound 1.007], the IC50 on MAP2K1 (MEK1) and at MEK1 (setting [1]) was 150 to 1500 nM each time. Take `CC(=O)c1sc(Nc2ccc(I)cc2F)c(C(=O)NOCC2CC2)c1C` [Compound 4.023]: the 50% inhibitory concentration (IC50) at MEK1 (setting [2]) is at most 500 nM. On to `N#Cc1ccc(C(=O)NOCCN)c(Nc2ccc(I)cc2F)c1` [Compound 1.018], for which the half-inhibitory concentration (IC50) on MAP2K1 (MEK1) lay within 150 to 1500 nM. With `NCCCn1ccc2cncc(Nc3ccc(I)cc3F)c2c1=O` [Compound 5.003], the IC50 on MAP2K1 (MEK1) fell in the range of 150 to 1500 nM. Consider `CC(=O)c1sc(Nc2ccc(I)cc2F)c(C(=O)N[C@@H]2CCNC2)c1C` [Compound 4.017], for which the half-inhibitory concentration (IC50) on MEK1 (setting [2]) lay in the range of 500 to 1000 nM. In the case of `CC(=O)c1sc(Nc2ccc(I)cc2F)c(C(=O)NC[C@H](O)CO)c1C` [Compound 4.014], the concentration for half-maximal inhibition (IC50) on MAP2K1 (MEK1) lay within 150 to 1500 nM. Still for that read-out and setting: then `Cc1cc(I)ccc1Nc1cc(C#N)ccc1C(=O)NOCC1CC1` [Compound 1.013], with 150 to 1500 nM. Regarding `CCONC(=O)c1c(Nc2ccc(I)cc2F)sc(C(C)=O)c1C` [Compound 4.022], the IC50 on MEK1 (setting [2]) is at most 500 nM.

As for `N#Cc1ccc(C(=O)NOCCO)c(Nc2ccc(I)cc2F)c1` [Compound 1.010], the IC50 on MAP2K1 (MEK1) and at MEK1 (setting [1]) was at most 150 nM throughout.

The values are drawn from patent US20230013227A1, “ARYL-ANILINE AND HETEROARYL-ANILINE COMPOUNDS FOR TREATMENT OF BIRTHMARKS” (NFlection Therapeutics, Inc., priority 2018, published 2023).
